Test: Quantification of garlic-derived metabolites in human urine after ingestion of 3 g raw garlic (SIDA, SAFE, HRGC-MS / HRGC-GC-MS)
Format: in vivo
Design: metabolite in urine related to creatinine: unit not given here
Conditions: for metabolite concentration in urine, creatinine-normalized / metabolite concentration in urine / time of highest concentration in urine after garlic consumption / highest detected concentration of the sample series: 3 g raw garlic; for highest detected concentration of the sample series: same bulb
Text: Human urine samples were obtained from 18 volunteers (age 22–38 years, mean 27 years; 11 females, 7 males); thereby, one volunteer conducted the whole experimental series twice. At the time of examination, volunteers reported no known illness that might have potentially influenced the metabolism or the excretion of urine. The test persons were instructed to avoid foods that were rich in sulfur-containing substances at the testing day as well as 2 days preceding the testing day, namely garlic, onion, wild garlic, chives, cabbage, and leek, and were only allowed to consume the garlic sample provided in the course of the experiments. Additionally, subjects were asked to keep records of the food (including food supplements) and beverages they consumed during these 3 testing days. Generally, the overall panelists' requirements were in accordance with our previous studies ([5], [16]).
On the sampling day, the outer garlic cloves of a whole garlic bulb were peeled and cut into ~3 mm cubes by using a garlic cutter (Genius GmbH, Limburg/Lahn, Germany). Subsequently these cubes were thoroughly mixed and aliquoted into 3 g portions. Three to four test persons conducted the experiment at the same day. Each test person was asked to ingest a garlic portion of 3 g. In total, eight consecutive urine samples were provided by each test person, comprising one whole urine set. The samples were collected in sterile brown glass bottles, with sampling times as follows: one sample was provided directly prior to garlic consumption. The series of the second to eighth sample was then obtained at about 0.5, 1, 2, 4, 6, 8, and 24 h after garlic consumption, respectively. Between the first urine sample (prior to garlic consumption) and the seventh urine sample (8 h after garlic consumption) test persons only spent urine at the specific time points mentioned before. Another sample was provided at the next morning (24 h after garlic consumption). Between the samples provided 8 and 24 h after garlic consumption no urine was collected. All samples were immediately placed into a −80°C freezer and were kept frozen until further analysis.
The samples of each set were termed according to their sampling time. The following list provides the time intervals that are related to the respective sample name: • - pre: before garlic consumption • - 0.5 h post: 0.4–0.8 h after garlic consumption • - 1 h post: 0.9–1.3 h after garlic consumption • - 2 h post: 1.8 h−2.2 h after garlic consumption • - 4 h post: 3.8–4.4 h after garlic consumption • - 6 h post: 5.8–6.4 h after garlic consumption • - 8 h post: 7.8–8.4 h after garlic consumption • - 24 h post: 23.8–25.6 h after garlic consumption
A creatinine kit (Labor+Technik Eberhard Lehmann GmbH, Berlin, Germany) was used to determine the creatinine content in each urine sample. The determination principle of this kit is based on the reaction of creatinine with picric acid under basic conditions (Jaffé reaction). The formed complex was detected photometrically at a wavelength of 492 nm.
For quantification purposes, the deuterated standards ^2H3-AMS, ^2H3-AMSO, and ^2H3-AMSO2 were added to the sample and stirred for 10 min. Subsequently, DCM was added in a ratio of 1:2 (DCM/human urine; v/v) and this solution was stirred for further 30 min at room temperature. To isolate the volatile fraction from the urine samples we then applied SAFE-distillation ([17]), thereby distilling the respective samples at 50°C. After completion of the distillation process, 10 mL of DCM were applied in each case to rinse the SAFE apparatus and to ensure complete transition of the volatile compounds. This process was repeated with another 10 mL of DCM. After thawing, the obtained aqueous distillate phase was extracted three times with 25 mL DCM. The organic phases were combined, dried over anhydrous Na2SO4 and concentrated to a total volume of 100 μL by means of Vigreux distillation and subsequent micro-distillation at 50°C. […]

metabolite concentration in urine, creatinine-normalized (U XII, 2 h post (1.85 h)): 1.3 µg/mmol creatinine | metabolite concentration in urine (U XII, 4 h post (3.80 h)): 0.5 µg/kg | metabolite concentration in urine, creatinine-normalized (U XII, 4 h post (3.80 h)): 0.2 µg/mmol creatinine | metabolite concentration in urine (U XII, 6 h post (5.82 h)): 0.4 µg/kg | metabolite concentration in urine, creatinine-normalized (U XII, 6 h post (5.82 h)): 0.1 µg/mmol creatinine | metabolite concentration in urine (U XII, 8 h post (7.82 h)): 0.3 µg/kg | metabolite concentration in urine, creatinine-normalized (U XII, 8 h post (7.82 h)): 0.1 µg/mmol creatinine | metabolite concentration in urine (U XII, 24 h post (23.92 h)): traces^1 | metabolite concentration in urine, creatinine-normalized (U XII, 24 h post (23.92 h)): traces^1 | metabolite concentration in urine (U XII, pre (-0.08 h)): traces^1 | metabolite concentration in urine, creatinine-normalized (U XII, pre (-0.08 h)): traces^1 | metabolite concentration in urine (U XIII, 0.5 h post (0.42 h)): 0.2 µg/kg | metabolite concentration in urine, creatinine-normalized (U XIII, 0.5 h post (0.42 h)): 0.1 µg/mmol creatinine | metabolite concentration in urine (U XIII, 1 h post (0.92 h)): 0.9 µg/kg | metabolite concentration in urine, creatinine-normalized (U XIII, 1 h post (0.92 h)): 0.3 µg/mmol creatinine | metabolite concentration in urine (U XIII, 2 h post (1.92 h)): 1.0 µg/kg | metabolite concentration in urine, creatinine-normalized (U XIII, 2 h post (1.92 h)): 0.3 µg/mmol creatinine | metabolite concentration in urine (U XIII, 4 h post (3.92 h)): 0.8 µg/kg | metabolite concentration in urine, creatinine-normalized (U XIII, 4 h post (3.92 h)): 0.2 µg/mmol creatinine | metabolite concentration in urine (U XIII, 6 h post (5.92 h)): 0.4 µg/kg | metabolite concentration in urine, creatinine-normalized (U XIII, 6 h post (5.92 h)): 0.04 µg/mmol creatinine | metabolite concentration in urine (U XIII, 8 h post (7.92 h)): 0.3 µg/kg | metabolite concentration in urine, creatinine-normalized (U XIII, 8 h post (7.92 h)): 0.03 µg/mmol creatinine | metabolite concentration in urine (U XIII, 24 h post (23.92 h)): traces^1 | metabolite concentration in urine, creatinine-normalized (U XIII, 24 h post (23.92 h)): traces^1 | metabolite concentration in urine (U XIII, pre (-0.08 h)): < LOD^1 | metabolite concentration in urine, creatinine-normalized (U XIII, pre (-0.08 h)): < LOD^1 | amounts detected in samples collected prior to garlic intervention (Urine III, VII, VIII, XI, XII, XVI, XVII, pre-ingestion samples): ≤ 0.2 μg/mmol creatinine | time of highest concentration in urine after garlic consumption (Urine VIII): 0.5 h | variation factor of the concentration maxima between test persons (Urine XIII-XVI, highest vs lowest maximum): up to 3.2 | highest detected concentration of the sample series (Urine XIII): 0.3 μg/mmol creatinine | highest detected concentration of the sample series (Urine XIV (AMS: printed Urine UIV)): 0.4 μg/mmol creatinine | highest detected concentration of the sample series (Urine XV): 1.0 μg/mmol creatinine | time of highest concentration in urine after garlic consumption (Urine XVI): 4 h | highest detected concentration of the sample series (Urine XVI): 0.3 μg/mmol creatinine | metabolite in urine related to creatinine (urine set U XIX, 0.5 h post (0.50 h), garlic 3.1133 g): 0.1 | metabolite in urine related to creatinine (urine set U XIX, 1 h post (1.00 h), garlic 3.1133 g): 1.5 | metabolite in urine related to creatinine (urine set U XIX, 2 h post (2.00 h), garlic 3.1133 g): 0.4 | metabolite in urine related to creatinine (urine set U XIX, 4 h post (4.00 h), garlic 3.1133 g): 0.2 | metabolite in urine related to creatinine (urine set U XIX, 6 h post (6.20 h), garlic 3.1133 g): 0.1 | metabolite in urine related to creatinine (urine set U XIX, 8 h post (7.93 h), garlic 3.1133 g): 0.1 | metabolite in urine related to creatinine (urine set U XIX, 24 h post (23.98 h), garlic 3.1133 g): 0.02 | metabolite in urine related to creatinine (urine set U XIX, pre (-0.07 h), garlic 3.1133 g): < LOD^1 | metabolite in urine related to creatinine (urine set U XVII, 0.5 h post (0.58 h), garlic 3.1559 g): 0.01 | metabolite in urine related to creatinine (urine set U XVII, 1 h post (1.00 h), garlic 3.1559 g): 0.1 | metabolite in urine related to creatinine (urine set U XVII, 2 h post (2.17 h), garlic 3.1559 g): 0.3 | metabolite in urine related to creatinine (urine set U XVII, 4 h post (4.00 h), garlic 3.1559 g): 0.2 | metabolite in urine related to creatinine (urine set U XVII, 6 h post (6.08 h), garlic 3.1559 g): 0.02 | metabolite in urine related to creatinine (urine set U XVII, 8 h post (8.00 h), garlic 3.1559 g): 0.02 | metabolite in urine related to creatinine (urine set U XVII, 24 h post (23.92 h), garlic 3.1559 g): traces^1 | metabolite in urine related to creatinine (urine set U XVII, pre (-0.08 h), garlic 3.1559 g): traces^1 | metabolite in urine related to creatinine (urine set U XVIII, 0.5 h post (0.63 h), garlic 3.1981 g): 0.2 | metabolite in urine related to creatinine (urine set U XVIII, 1 h post (1.05 h), garlic 3.1981 g): 0.3 | metabolite in urine related to creatinine (urine set U XVIII, 2 h post (2.00 h), garlic 3.1981 g): 0.6 | metabolite in urine related to creatinine (urine set U XVIII, 4 h post (3.97 h), garlic 3.1981 g): 0.4 | metabolite in urine related to creatinine (urine set U XVIII, 6 h post (5.97 h), garlic 3.1981 g): 0.1 | metabolite in urine related to creatinine (urine set U XVIII, 8 h post (8.30 h), garlic 3.1981 g): 0.4 | metabolite in urine related to creatinine (urine set U XVIII, 24 h post (24.13 h), garlic 3.1981 g): traces^1 | metabolite in urine related to creatinine (urine set U XVIII, pre (-0.08 h), garlic 3.1981 g): < LOD^1
SMILES: C=CCSC [AMS, allyl methyl sulfide]

— paper PMC6499206, “Quantification of Volatile Metabolites Derived From Garlic (Allium sativum) in Human Urine” (Frontiers in Nutrition, 2019)
